Data reported in article PMC8878317, “Chemogenomics identifies acetyl-coenzyme A synthetase as a target for malaria treatment and prevention” (Cell Chemical Biology, 2022).

Tested on: P. falciparum 3D7 parasites
Test: Metabolomic profiling of compound-treated parasites (LC/MS);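 on Metabolite data: 3-Phosphoglycerate: Log2 fold change in abundance versus untreated parasite controls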;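 on Metabolite data: Myo-Inositol: Log2 fold change in abundance versus untreated parasite controls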;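 on Metabolite data: N-Carbamoyl-L-Aspartate: Log2 fold change in abundance versus untreated parasite controls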;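 on Metabolite data: Nicotinate: Log2 fold change in abundance versus untreated parasite controls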
Format: cell-based
Set-up: Metabolite data: dTMP / Metabolite data: GMP / Metabolite data: S-Adenosyl-L-Homocysteine / Metabolite data: 1_3-Bisphosphoglyceric acid: scale not given here
Protocol: The metabolite extraction protocol was performed as described elsewhere ([Allman et al., 2016]). Briefly, 1 mL of trophozoites that were magnetically purified to a concentration of 1×10^8 parasites/mL were placed into wells with 4 mL of RPMI 1640 media and allowed to recover for one hour. […] The culture was incubated for another 2.5 hr. The culture was centrifuged and quenched with 90% methanol containing 0.25 μM ^13C,^15N-Labeled-Aspartate, vortexed, and centrifuged. The supernatant was transferred to a new tube and dried for storage. Prior to analysis, the samples were resuspended to a final concentration of 1×10^8 parasites/mL in a solution of 3% methanol:water containing 1 μM chlorpropamide as an internal standard.
The chromatographic conditions used in this experiment were performed with slight modifications from previous methods ([Zhang et al., 2018]). Briefly, a Waters XSelect HSS C18 column was used on a gradient reverse-phase chromatographic configuration with 97:3 water:methanol with 10 mM tributylamine and 15 mM acetic acid (solvent A) and methanol (solvent B). A Thermo-Scientific Exactive Plus Orbitrap mass spectrometer was operated in negative mode for the detection of the metabolites. Peak picking and integration were performed using El-Maven LC/MS data processing software. The peak data were then exported to Excel where metabolite areas were normalized to the internal standards, blank subtracted, and averaged by condition.

Question: With `CC1(C)N=C(N)N=C(N)N1OCCCOc1cc(Cl)c(Cl)cc1Cl` [WR99210] as the compound, how does the “Metabolite data: 1_3-Bisphosphoglyceric acid” value read?
Answer: The value was 0.

Question: What about the “Metabolite data: 2_3-Diphosphoglyceric acid” value of the same compound?
Answer: The value was 0.15.

Question: And the “Metabolite data: 3-Phosphoglycerate” value?
Answer: Its value is 0.

Question: And the “Metabolite data: 4-Aminobutyrate” value?
Answer: The value was 0.89.

Question: What about the “Metabolite data: 4-Phosphopantothenate” value of the same compound?
Answer: The value was 0.06.

Question: And the “Metabolite data: 4-phosphopantetheine” value?
Answer: Its value is 0.

Question: And the “Metabolite data: 5-aminopentanoic acid” value?
Answer: Its value is 0.

Question: What about the “Metabolite data: 5-phosphoribosyl-1-pyrophosphate” value of the same compound?
Answer: Its value is 0.

Question: What about the “Metabolite data: 6-Phospho-D-Gluconate” value of the same compound?
Answer: Its value is 0.03.

Question: What about the “Metabolite data: ADP-D-Glucose” value of the same compound?
Answer: Its value is -0.24.

Question: And the “Metabolite data: Acetyl-CoA” value?
Answer: Its value is 0.03.

Question: And the “Metabolite data: Acetyllysine” value?
Answer: The value was 0.3.

Question: What about the “Metabolite data: Aconitate” value of the same compound?
Answer: The value was -0.02.

Question: What about the “Metabolite data: CDP” value of the same compound?
Answer: Its value is 0.18.

Question: What about the “Metabolite data: CDP-Ethanolamine” value of the same compound?
Answer: Its value is 0.69.

Question: And the “Metabolite data: CDP-choline” value?
Answer: Its value is 0.

Question: And the “Metabolite data: CMP” value?
Answer: Its value is -0.07.

Question: And the “Metabolite data: CTP” value?
Answer: The value was -0.11.

Question: What about the “Metabolite data: Citrate/Isocitrate” value of the same compound?
Answer: Its value is 0.01.

Question: And the “Metabolite data: Cyclic-AMP” value?
Answer: Its value is 0.

Question: What about the “Metabolite data: Dihydroorotate” value of the same compound?
Answer: The value was 0.21.

Question: What about the “Metabolite data: FAD” value of the same compound?
Answer: The value was 0.03.

Question: And the “Metabolite data: FMN” value?
Answer: The value was -0.26.

Question: What about the “Metabolite data: Fructose-1,6-Bisphosphate” value of the same compound?
Answer: Its value is 0.

Question: And the “Metabolite data: Fumarate” value?
Answer: Its value is 0.11.

Question: What about the “Metabolite data: GDP” value of the same compound?
Answer: The value was 0.23.

Question: And the “Metabolite data: GMP” value?
Answer: Its value is 0.07.

Question: And the “Metabolite data: GTP” value?
Answer: The value was -0.36.

Question: And the “Metabolite data: Glucose-1/6-Phosphate” value?
Answer: Its value is -0.02.

Question: And the “Metabolite data: Glutathione Disulfide” value?
Answer: The value was 0.14.

Question: What about the “Metabolite data: Hexose” value of the same compound?
Answer: Its value is 0.

Question: And the “Metabolite data: Hydroxyisocaproic acid” value?
Answer: The value was 0.

Question: And the “Metabolite data: Indole” value?
Answer: The value was 0.05.

Question: What about the “Metabolite data: Ketoleucine” value of the same compound?
Answer: Its value is 0.

Question: What about the “Metabolite data: L-arginino-succinate” value of the same compound?
Answer: Its value is 0.

Question: And the “Metabolite data: Lactate” value?
Answer: The value was 0.42.

Question: What about the “Metabolite data: Malate” value of the same compound?
Answer: Its value is 0.06.

Question: What about the “Metabolite data: Myo-Inositol” value of the same compound?
Answer: The value was 0.64.

Question: And the “Metabolite data: N-Acetyl-Glutamate” value?
Answer: The value was 0.09.

Question: What about the “Metabolite data: N-Acetyl-L-Alanine” value of the same compound?
Answer: The value was 0.02.

Question: And the “Metabolite data: N-Acetyl-L-Ornithine” value?
Answer: The value was 0.2.

Question: And the “Metabolite data: N-Carbamoyl-L-Aspartate” value?
Answer: The value was 0.03.

Question: And the “Metabolite data: NAD+” value?
Answer: Its value is 0.17.

Question: And the “Metabolite data: NADH” value?
Answer: Its value is 3.14.

Question: What about the “Metabolite data: NADP+” value of the same compound?
Answer: Its value is 0.03.

Question: What about the “Metabolite data: NADPH” value of the same compound?
Answer: The value was 0.5.

Question: And the “Metabolite data: Nicotinate” value?
Answer: Its value is 0.23.

Question: And the “Metabolite data: Octulose 8/1-Phosphate” value?
Answer: Its value is 0.08.

Question: What about the “Metabolite data: Orotate” value of the same compound?
Answer: The value was 0.09.

Question: What about the “Metabolite data: PD” value of the same compound?
Answer: Its value is 0.

Question: What about the “Metabolite data: PE” value of the same compound?
Answer: Its value is 0.

Question: And the “Metabolite data: PEEK” value?
Answer: Its value is 0.

Question: What about the “Metabolite data: Phenol Red” value of the same compound?
Answer: The value was 0.

Question: And the “Metabolite data: Pyroglutamic acid” value?
Answer: The value was 0.03.

Question: What about the “Metabolite data: S-Adenosyl-L-Homocysteine” value of the same compound?
Answer: Its value is 0.

Question: What about the “Metabolite data: S-methyl-5'-thioadenosine” value of the same compound?
Answer: Its value is 0.14.

Question: What about the “Metabolite data: SD” value of the same compound?
Answer: The value was 0.

Question: And the “Metabolite data: Sedoheptulose Bisphosphate” value?
Answer: Its value is 0.08.

Question: And the “Metabolite data: UDP” value?
Answer: The value was 0.22.

Question: What about the “Metabolite data: UDP-D-Glucose” value of the same compound?
Answer: The value was 0.05.

Question: What about the “Metabolite data: UDP-D-Glucuronate” value of the same compound?
Answer: The value was 0.01.

Question: And the “Metabolite data: UDP-N-Acetyl-Glucosamine” value?
Answer: The value was 0.06.

Question: What about the “Metabolite data: UMP” value of the same compound?
Answer: The value was 0.

Question: And the “Metabolite data: UTP” value?
Answer: Its value is -0.42.

Question: And the “Metabolite data: a-ketoglutarate” value?
Answer: The value was 0.08.

Question: What about the “Metabolite data: acetyl-aspartate” value of the same compound?
Answer: Its value is 0.

Question: And the “Metabolite data: arginine” value?
Answer: Its value is 0.

Question: What about the “Metabolite data: asparagine” value of the same compound?
Answer: The value was 0.

Question: What about the “Metabolite data: aspartate” value of the same compound?
Answer: Its value is 0.

Question: And the “Metabolite data: biotin” value?
Answer: The value was 0.

Question: And the “Metabolite data: chlorpropamide” value?
Answer: The value was 0.

Question: And the “Metabolite data: coenzyme A” value?
Answer: Its value is 0.

Question: What about the “Metabolite data: dAMP” value of the same compound?
Answer: The value was -0.3.

Question: And the “Metabolite data: dATP” value?
Answer: The value was -0.89.

Question: What about the “Metabolite data: dCDP” value of the same compound?
Answer: The value was 0.46.

Question: And the “Metabolite data: dCMP” value?
Answer: Its value is 0.32.

Question: What about the “Metabolite data: dCTP” value of the same compound?
Answer: The value was 0.42.

Question: And the “Metabolite data: dGDP/ADP” value?
Answer: The value was 0.

Question: What about the “Metabolite data: dGMP/AMP” value of the same compound?
Answer: Its value is 0.

Question: What about the “Metabolite data: dGTP/ATP” value of the same compound?
Answer: The value was 0.

Question: What about the “Metabolite data: dTDP” value of the same compound?
Answer: Its value is 0.16.

Question: And the “Metabolite data: dTMP” value?
Answer: The value was -0.05.

Question: And the “Metabolite data: dTTP” value?
Answer: Its value is -0.28.

Question: What about the “Metabolite data: folate” value of the same compound?
Answer: Its value is 0.

Question: And the “Metabolite data: glucono-lactone” value?
Answer: Its value is 0.

Question: What about the “Metabolite data: glutamate” value of the same compound?
Answer: The value was 0.

Question: And the “Metabolite data: glutamine” value?
Answer: The value was 0.

Question: And the “Metabolite data: glutathione” value?
Answer: Its value is 0.

Question: And the “Metabolite data: histidine” value?
Answer: The value was 0.

Question: What about the “Metabolite data: hydroxyproline/Aminolevulinate” value of the same compound?
Answer: Its value is 0.

Question: What about the “Metabolite data: isoleucine” value of the same compound?
Answer: Its value is 0.

Question: What about the “Metabolite data: leucine” value of the same compound?
Answer: Its value is 0.

Question: And the “Metabolite data: maleic acid” value?
Answer: The value was 0.

Question: What about the “Metabolite data: methionine” value of the same compound?
Answer: Its value is 0.

Question: And the “Metabolite data: nicotinamide mononucleotide” value?
Answer: The value was 0.

Question: And the “Metabolite data: orotidine-5'-phosphate” value?
Answer: The value was 0.
